Reference: US7265131B2, “Isoquinolinone derivatives and their use as therapeutic agents” (Exelixis, Inc., priority 2002, dated 2007)

Target: T1, LXR β (Homo sapiens, UniProt P55055)
T1 construct: comprising full-length LXR α (pCMX-hLXR α), LXR β (pCMX-hLXR β), or RXR α (pCMX-RXR); expressed in transfected cells; host or cells: CV-1 African Green Monkey kidney cells, transient transfection
T1 sequence (P55055 1-460): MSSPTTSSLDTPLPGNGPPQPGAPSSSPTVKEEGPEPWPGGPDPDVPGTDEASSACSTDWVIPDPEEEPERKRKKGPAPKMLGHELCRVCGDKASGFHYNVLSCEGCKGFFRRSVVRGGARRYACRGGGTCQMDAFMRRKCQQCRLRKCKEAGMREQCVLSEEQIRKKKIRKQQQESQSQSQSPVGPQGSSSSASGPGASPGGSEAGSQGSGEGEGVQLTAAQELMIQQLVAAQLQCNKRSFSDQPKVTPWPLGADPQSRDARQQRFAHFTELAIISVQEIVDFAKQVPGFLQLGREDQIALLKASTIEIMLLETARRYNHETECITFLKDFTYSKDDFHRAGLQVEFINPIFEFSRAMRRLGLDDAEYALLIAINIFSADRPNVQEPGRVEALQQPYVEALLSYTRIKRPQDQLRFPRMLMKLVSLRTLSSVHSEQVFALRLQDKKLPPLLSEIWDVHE
T1 sequence (P19793 1-462 partner): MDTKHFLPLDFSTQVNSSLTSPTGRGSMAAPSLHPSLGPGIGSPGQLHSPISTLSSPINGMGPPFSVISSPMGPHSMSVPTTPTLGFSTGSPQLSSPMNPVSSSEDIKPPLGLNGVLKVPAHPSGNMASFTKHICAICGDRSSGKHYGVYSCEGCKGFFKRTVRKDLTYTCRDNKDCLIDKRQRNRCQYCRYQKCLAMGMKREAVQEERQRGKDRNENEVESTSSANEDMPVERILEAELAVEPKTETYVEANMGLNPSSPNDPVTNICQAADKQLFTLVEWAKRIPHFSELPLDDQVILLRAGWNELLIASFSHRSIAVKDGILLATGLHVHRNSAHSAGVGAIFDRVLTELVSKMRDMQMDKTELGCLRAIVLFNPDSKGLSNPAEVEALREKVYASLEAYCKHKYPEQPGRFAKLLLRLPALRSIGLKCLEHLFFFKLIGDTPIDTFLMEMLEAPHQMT
Assay: LXR/LXRE co-transfection assay (luciferase reporter, CV-1 cells)
Format: cell-based
Conditions: for Emax: CV-1, average percent efficacy, relative to control N-(3-((4-fluorophenyl)-(naphthalene-2-sulfonyl)amino)propyl)-2,2-dimethylpropionamide, read-out: % Eff(b); for EC50: average EC50 for agonism, cotransfection assay, CV-1 cells
Description: To measure the ability of compounds to activate or inhibit the transcriptional activity of LXR in a cell based assay, the co-transfection assay was used. It has been shown that LXR functions as a heterodimer with RXR. For the co-transfection assay, expression plasmids for LXR and RXR are introduced via transient transfection into mammalian cells along with a luciferase reporter plasmid that contains one copy of a DNA sequence that is bound by LXR-RXR heterodimers (LXRE; Willy, P. et al. 1995). Treatment of transfected cells with an LXR agonist increases the transcriptional activity of LXR, which is measured by an increase in luciferase activity.
1. CV-1 African Green Monkey Kidney Cells
2. Co-transfection expression plasmids, comprising full-length LXR α (pCMX-hLXR α), LXR β (pCMX-hLXR β), or RXR α (pCMX-RXR), reporter plasmid (LXREx1-Tk-Luciferase), and control (pCMX-Galactosidase expression vector) (Willey et al. Genes & Development 9 1033-1045 (1995)).
CV-1 cells were prepared 24 hours prior to the experiment by plating them into T-175 flasks or 500 cm^2 dishes in order to achieve 70-80% confluency on the day of the transfection. The number of cells to be transfected was determined by the number of plates to be screened. Each 384 well plate requires 1.92×10^6 cells or 5000 cells per well. DNA Transfection Reagent was prepared by mixing the required plasmid DNAs with a cationic lipid transfection reagent FuGENE6 (Roche) by following the instructions provided with the reagents. Optimal DNA amounts were determined empirically per cell line and size of vessel to be transfected. 10-12 mL of media was added to the DNA Transfection Reagent and this mixture was added to the cells after aspirating media from the T175 cm^2 flask. Cells were then incubated at least 5 hours at 37° C. to prepare screening cells.
Luciferase assay reagent was prepared by combining before use (per 10 mL):
Assay plates were prepared by dispensing 5 μL of compound per well of a 384 well plate to achieve final compound concentration of 10 μM and no more than 1% DMSO. Media was removed from the screening cells, the cells trypsinized, harvested cells by centrifugation, counted, and plated at a density of approximately 5000 cells per well in the 384 well assay plate prepared above in a volume of about 45 μL. Assay plates containing both compounds and screening cells (50 μL in total volume) were incubated for 20 hours at 37° C.
After incubation with compounds, media was removed from the cells and lysis buffer (30 μuL/well) added. After 30 minutes at ambient temperature, luciferase assay buffer (30 μL/well) was added and the assay plates read on a luminometer (PE Biosystems Northstar reader with on-board injectors, or equivalent). Plates were read immediately after addition of luciferase assay buffer.
The LXR/LXRE co-transfection assay can be used to establish the EC50/IC50 values for potency and percent activity or inhibition for efficacy. Efficacy defines the activity of a compound relative to a high control ((N-(3-((4-fluorophenyl)-(naphthalene-2-sulfonyl)amino)propyl)-2,2-dimethylpropionamide)) or a low control (DMSO/vehicle). The dose response curves are generated from an 8 point curve with concentrations differing by ½ LOG units. Each point represents the average of 4 wells of data from a 384 well plate.
The data from this assay is fitted to the following equation, from the EC50 value may be solved: Y=Bottom+(Top-Bottom)/(1+10^((logEC50-X*HillSlope))
The EC50/IC50 is therefore defined as the concentration at which an agonist or antagonist elicits a response that is half way between the Top (maximum) and Bottom (baseline) values. The EC50/IC50 values represented are the averages of at least 3 independent experiments. […]

Compound | Emax | EC50
Cc1ccc(Cn2c(-c3ccc(Oc4ccccc4)cc3)cc3ccccc3c2=O)c(C)c1 [2-(2,4-dimethylbenzyl)-3-(4-phenoxyphenyl)-2H-isoquinolin-1-one] | > 90% | 10 to 150 nM
O=c1c2c(Cl)cccc2cc(-c2cc(-c3cc(C(F)(F)F)cc(C(F)(F)F)c3)co2)n1Cc1ccc(F)cc1F [3-[4-(3,5-bis-trifluoromethylphenyl)furan-2-yl]-8-chloro-2-(2,4-difluorobenzyl)-2H-isoquinolin-1-one] | > 90% | 10 to 150 nM
Nc1ccc(-c2coc(-c3cc4cccc(Cl)c4c(=O)n3Cc3ccc(F)cc3F)c2)cc1C(F)(F)F [3-[4-(4-amino-3-trifluoromethylphenyl)furan-2-yl]-8-chloro-2-(2,4-difluorobenzyl)-2H-isoquinolin-1-one] | > 90% | 10 to 150 nM
CCOc1ccc(-c2csc(-c3cc4cccc(Cl)c4c(=O)n3Cc3ccc(F)cc3F)c2)cc1Cl [8-chloro-3-[4-(3-chloro-4-ethoxyphenyl)thiophen-2-yl]-2-(2,4-difluorobenzyl)-2H-isoquinolin-1-one] | > 90% | 10 to 150 nM
Cc1ccc(Cn2c(C#CC(C)(C)O)cc3ccccc3c2=O)c(C)c1 [2-(2,4-dimethylbenzyl)-3-(3-hydroxy-3-methylbut-1-ynyl)-2H-isoquinolin-1-one] | 40 to 90% | > 500 nM
Cc1cccc(-c2cc3ccccc3c(=O)n2Cc2ccccc2)c1 [2-benzyl-3-m-tolyl-2H-isoquinolin-1-one] | 40 to 90% | > 500 nM
O=c1c2c(Cl)cccc2cc(-c2ccc(Oc3ccccc3)cc2)n1CC1CCCCC1 [8-chloro-2-cyclohexylmethyl-3-(4-phenoxyphenyl)-2H-isoquinolin-1-one] | > 90% | 150 to 500 nM
CS(=O)(=O)c1ccc(-c2ccc(-c3cc4cccc(Cl)c4c(=O)n3Cc3ccc(F)cc3F)s2)cc1 [8-chloro-2-(2,4-difluorobenzyl)-3-[5-(4-methanesulfonylphenyl)thiophen-2-yl]-2H-isoquinolin-1-one] | > 90% | < 10 nM
Cc1ccc(Cn2c(-c3ccsc3)cc3ccccc3c2=O)c(C)c1 [2-(2,4-dimethylbenzyl)-3-thiophen-3-yl-2H-isoquinolin-1-one] | 40 to 90% | > 500 nM
Cc1cccc(-c2cc3ccccc3c(=O)n2Cc2ccc(C)cc2C)c1 [2-(2,4-dimethylbenzyl)-3-m-tolyl-2H-isoquinolin-1-one] | 40 to 90% | > 500 nM

Other lines, results leading:

Emax | EC50 | Compound
> 90% | 150 to 500 nM | O=c1c2c(Cl)cccc2cc(-c2ccc(Oc3ccccc3)cc2)n1Cc1cccs1 [8-chloro-3-(4-phenoxyphenyl)-2-thiophen-2-ylmethyl-2H-isoquinolin-1-one]
> 90% | 10 to 150 nM | O=c1c2c(Cl)cccc2cc(-c2ccc(Oc3ccccc3)cc2)n1Cc1ccc(F)cc1F [8-chloro-2-(2,4-difluorobenzyl)-3-(4-phenoxyphenyl)-2H-isoquinolin-1-one]
40 to 90% | 10 to 150 nM | Cc1ccc(Cn2c(-c3ccc(Oc4ccccc4)cc3)cc3cccc(C)c3c2=O)cc1 [8-methyl-2-(4-methylbenzyl)-3-(4-phenoxyphenyl)-2H-isoquinolin-1-one]
> 90% | 10 to 150 nM | O=c1c2c(Cl)cccc2cc(-c2ccc(Oc3cnccn3)cc2)n1Cc1ccc(F)cc1F [8-chloro-2-(2,4-difluorobenzyl)-3-[4-(pyrazin-2-yloxy)phenyl]-2H-isoquinolin-1-one]
